Laboratory results from patent US20060135480A1, “Derivatives of succinic and glutaric acids and analogs thereof useful as inhibitors of phex” (Enobia Pharma, priority 2002, published 2006).

Key:
[1] = target: T1, sPHEX (Homo sapiens, UniProt P78562); assay: sPHEX inhibitor IC50 determination using a fluorogenic substrate (Abz-GFSDYK-Dnp, S3); assay type: biochemical; settings: fluorogenic substrate 20 μM, 100 ng sPHEX, pH 6.5
T1 construct: The soluble form of the metallopeptidase PHEX (sPHEX) was purified to homogeneity; made in house
T1 sequence (P78562 53-749 limits assumed): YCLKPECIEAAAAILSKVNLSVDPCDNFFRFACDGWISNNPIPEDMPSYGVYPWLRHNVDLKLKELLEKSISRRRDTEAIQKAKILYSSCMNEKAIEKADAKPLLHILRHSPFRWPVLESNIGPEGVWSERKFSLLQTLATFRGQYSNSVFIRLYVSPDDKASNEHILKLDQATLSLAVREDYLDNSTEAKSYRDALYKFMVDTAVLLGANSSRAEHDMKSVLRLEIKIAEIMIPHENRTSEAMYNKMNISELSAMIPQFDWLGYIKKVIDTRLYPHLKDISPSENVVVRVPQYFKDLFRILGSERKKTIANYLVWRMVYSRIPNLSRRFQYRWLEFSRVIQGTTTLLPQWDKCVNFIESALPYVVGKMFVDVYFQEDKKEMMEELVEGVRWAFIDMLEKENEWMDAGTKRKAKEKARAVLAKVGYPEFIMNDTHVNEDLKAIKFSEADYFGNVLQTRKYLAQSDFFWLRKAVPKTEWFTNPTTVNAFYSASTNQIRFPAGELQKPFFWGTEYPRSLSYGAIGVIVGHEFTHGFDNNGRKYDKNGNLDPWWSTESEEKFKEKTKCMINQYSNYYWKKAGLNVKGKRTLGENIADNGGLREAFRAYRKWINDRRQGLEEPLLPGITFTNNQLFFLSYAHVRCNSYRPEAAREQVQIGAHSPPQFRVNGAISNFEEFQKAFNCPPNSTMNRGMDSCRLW
Experimental: The soluble form of the metallopeptidase PHEX (sPHEX) was purified to homogeneity according to the methods of Boileau and Crine (WO 00/50580). sPHEX quantity was measured with the Bradford assay (BioRad) using BSA as a standard.
sPHEX activity was determined using a fluorogenic substrate in which an increase of fluorescence was proportional to substrate conversion to products.
S3 was synthesized at Dr. Gilles Lajoie's laboratories (University of Western Ontario, Canada) by standard solid phase peptide synthesis. The fluorescent reaction product was excited at 320 nm to fluoresce at 420 nm. Fluorescence was recorded at 420 nm every five minutes over a one-hour period on a fluorescence plate reader (Perkin-Elmer, HTS-7000) to calculate the initial rate of the reaction. Typically, the reaction was carried out in 200 μl of buffer M (50 mM Mes(NaOH) pH 6.5, 150 mM NaCl) containing 100 ng of purified sPHEX and 20 μM of fluorigenic substrate to initiate the reaction. Enzymatic activity was determined by subtracting either the initial rate of substrate in buffer (solvolysis), or the typical reaction rate in which 5 mM EDTA was added prior to initiating the reaction.
sPHEX inhibitor IC50 determinations were done using the tested inhibitor at various concentrations coming from a serial dilution (usually ranging from 10^−3 M to 10^−12 M) in the reaction described above. IC50 values were calculated using the iterative four parameters non-linear regression formula from the GraphPad™ software (Prism).

[2] = test system: rat mandibular defect; assay: Bone lesion repair in rat mandibular defect model (hydroxyapatite particles soaked in inhibitor); assay type: in vivo; settings: for bone formation (scanning electron microscopy, % of total defect area): 14 days of healing
Experimental: Osteogenic properties of PHEX inhibitors can be shown in a model of rat mandibular defect. For example, a 2 mm size bone defect was created in the rat mandible as described previously (Vu et al., 1999). Rats were anesthetized and the vestibular surface of the right mandibular ramus was exposed as follow: an incision was made through the skin along an imaginary line forming a 90° angle with the lower lip to access the muscle layer. A scalpel blade was used to make an incision parallel to the fibers of the deep portion of masseter muscle, about 2 mm posterior to the facial artery (largest branch of the external carotid), in the portion where it gives rise to the labial mandibular artery. The periosteum was elevated and the underlying bony surface exposed. A 2 mm×2 mm bony window was drilled between the second and third molar using a slow-speed dental drill with a carbide round burr size 1.4 mm (Brasseler) and a drill size 2 mm (Straumann Canada Ltd). Saline irrigation was used during the drilling. Porous hydroxyapatite particles (Fin-Ceramica Faenza s.r.l.) with pore size ranged from 450 to 600 μm were accommodated in the bony hole and pushed into it. The particles had been incubated previously in solutions of varying concentrations of PHEX inhibitor or vehicle for 16 to 24 hours at 4° C. Once the bony window was filled the lesion was covered with a membrane of hydroxyapatite (Fin-Ceramica Faenza s.r.l.) which was fixed to the surrounding bone surface with topical tissue adhesive. The muscle fibers were carefully repositioned on the mandible and sutured with absorbable surgical sutures (Chromic Gut, Ethicon Inc.). The skin was sutured for total coverage with silk sutures (Sherwood Davis & Geck, Wayne). After 7 days of treatment the bone lesion was exposed and varying concentrations of PHEX inhibitor or vehicle was reapplied to hydroxyapatite particles. Treatment was continued for another 7 days.
After the 14 day healing period, bone formation at the defect was evaluated by scanning electron microscopy and microcomputed tomography. Animals were sacrificed by intravascular perfusion through the left ventricle with 4% paraformaldehyde and 0.1% glutaraldehyde solution. Treated hemimandibles were taken, immersed in the fixative overnight at 4° C. then washed and kept in 0.1 M cacodylate buffer pH 8.0 until analysis. Specimens for quantification by scanning electron microscopy were dehydrated in a graded alcohol series and embedded in LR White resin (Marivac) for further sectioning along their longitudinal axis. […] Amount of bone tissue present in the sections was quantified by manual tracing using the MOP-3 system (Carl Zeiss) and was expressed as a percentage of the total defect area.

## O=C(O)CC(CC(=O)NO)C(=O)NCCc1ccc(-c2ccccc2)cc1 (centres unmarked) [Example 126, 3-(2-Biphenyl-4-yl-ethylcarbamoyl)4-hydroxycarbamoyl-butyric acid]
[1]
  IC50: 17 nM
[2]; 1×10^−5 M on hydroxyapatite particles, compared to saline
  bone formation (scanning electron microscopy, % of total defect area): reduced significantly
[2]; high inhibitor dose, one representative specimen per group
  bone formation (microcomputed tomography 3D reconstruction): reduced bone formation
[2]; low dose of inhibitor vs saline, one representative specimen per group
  bone around particles (microcomputed tomography 3D reconstruction): more bone
[2]; lower concentrations on hydroxyapatite particles
  bone formation (scanning electron microscopy, % of total defect area): significantly stimulated
